Columns and labels:
Format in all cases: in vivo, beef steers
[1] = Dose/response of nasal administration, serum 25-Hydroxy-Vitamin D3 (Example III); settings: intranasal
Method: To study the dose/response efficacy of nasal administration of Vitamin D, twelve (12) beef steers of mixed breeding were used to evaluate four treatments (3 replications). These four treatments were:
(§1) Treatments were applied and cattle were bled via jugular venipuncture at 0 and 6 hours post-dosing.

[2] = Serum 25-Hydroxy-Vitamin D3 after intranasal or transdermal administration (Example II); settings: for fold increase in the 25-Hydroxy-Vitamin D3 serum level / percent increase in the 25-Hydroxy-Vitamin D3 serum level: nasal delivery
Method: These five treatments were:
Treatments were applied and cattle were bled via jugular venipuncture at 0, 6, and 24 hours post-dosing.

[3] = Buccal versus nasal administration, serum 25-Hydroxy-Vitamin D3 (Example IV); settings: for serum level change for each milligram administered: after 6 hours (FIG. 7)
Method: To study the dose/response efficacy of buccal administration of one or more vitamins, beef steers of mixed breeding were used to evaluate three treatments (3 replications). These three treatments were:
as §1

[4] = Serum 25-Hydroxy-Vitamin D3 after intravenous infusion (Example I); settings: 125 mg intravenous infusion
Method: Applicants infused three (3) beef steers of mixed breeding with 125 milligrams of 25-Hydroxy-Vitamin D3 intravenously. Blood was drawn just prior to the intravenous infusion and at 6 hours and 24 hours post administration.
Point 120, representing 116 nanomoles per liter, comprises the serum level of 25-Hydroxy-Vitamin D3 just prior to the intravenous infusion. At 6 hours post administration, the serum blood level was measured as 2432 nanomoles per liter, i.e. point 130. […] At 24 hours post administration, the serum blood level was measured as 1011 nanomoles per liter, i.e. point 140.

[5] = Treatment 2: 125 mg 25-OH D3, ethanol, intranasal, 6 Hours
[6] = Treatment 2: 125 mg 25-OH D3, ethanol, intranasal, 24 Hours
[7] = Treatment 2: 125 mg 25-OH D3, ethanol, intranasal, time 0
[8] = Treatment 2: 125 mg in ethanol, 6 hours post administration (FIG. 2, point 212)
[9] = Treatment 2: 125 mg in ethanol, 24 hours post administration (FIG. 2, point 214)
[10] = Treatment 3: 125 mg 25-OH D3, powder, intranasal, 6 Hours
[11] = Treatment 3: 125 mg 25-OH D3, powder, intranasal, 24 Hours
[12] = Treatment 3: 125 mg 25-OH D3, powder, intranasal, time 0
[13] = Treatment 4: 125 mg 25-OH D3, corn oil, intranasal, 6 Hours
[14] = Treatment 4: 125 mg 25-OH D3, corn oil, intranasal, 24 Hours
[15] = Treatment 4: 125 mg 25-OH D3, corn oil, intranasal, time 0
[16] = Treatment 5: 125 mg 25-OH D3, transdermal (inner ear), 6 Hours
[17] = Treatment 5: 125 mg 25-OH D3, transdermal (inner ear), 24 Hours
[18] = Treatment 5: 125 mg 25-OH D3, transdermal (inner ear), time 0

C=C1CC[C@H](O)C/C1=C/C=C1\CCC[C@]2(C)[C@@H]([C@H](C)CCCC(C)(C)O)CC[C@@H]12 [25-Hydroxy-Vitamin D3]
Average Serum Levels-25-Hydroxy-Vitamin D3 ([1]; Treatment 2: 30 mg 25-OH D3 in 1 ml ethanol, 6 Hours): 149.67 nmoI/L
Average Serum Levels-25-Hydroxy-Vitamin D3 ([1]; Treatment 2: 30 mg 25-OH D3 in 1 ml ethanol, time 0): 121.33 nmoI/L
change in serum level per milligram administered, compared among dosages ([1]; Treatment 2: 30 mg in 1 ml ethanol, 6 hours, versus 60, 90, 120 mg (FIG. 5)): maximum change in serum level per milligram administered
Average Serum Levels-25-Hydroxy-Vitamin D3 ([1]; Treatment 3: 60 mg 25-OH D3 in 1 ml ethanol, 6 Hours): 184.33 nmoI/L
Average Serum Levels-25-Hydroxy-Vitamin D3 ([1]; Treatment 3: 60 mg 25-OH D3 in 1 ml ethanol, time 0): 144.67 nmoI/L
Average Serum Levels-25-Hydroxy-Vitamin D3 ([1]; Treatment 4: 90 mg 25-OH D3 in 1 ml ethanol, 6 Hours): 180.67 nmoI/L
Average Serum Levels-25-Hydroxy-Vitamin D3 ([1]; Treatment 4: 90 mg 25-OH D3 in 1 ml ethanol, time 0): 131.33 nmoI/L
Average Serum Levels-25-Hydroxy-Vitamin D3 ([1]; Treatment 5: 120 mg 25-OH D3 in 1 ml ethanol, 6 Hours): 191.67 nmoI/L
Average Serum Levels-25-Hydroxy-Vitamin D3 ([1]; Treatment 5: 120 mg 25-OH D3 in 1 ml ethanol, time 0): 122.33 nmoI/L
Average Serum Levels-25-Hydroxy-Vitamin D3 [2, 5]: 226 nmol/L
Multiple change from time 0 of serum 25-Hydroxy-Vitamin D3 [2, 5]: 3.0
Average Serum Levels-25-Hydroxy-Vitamin D3 [2, 6]: 354 nmol/L
Multiple change from time 0 of serum 25-Hydroxy-Vitamin D3 [2, 6]: 4.7
Average Serum Levels-25-Hydroxy-Vitamin D3 [2, 7]: 75 nmol/L
Multiple change from time 0 of serum 25-Hydroxy-Vitamin D3 [2, 7]: 0
course of serum level of 25-Hydroxy-Vitamin D3 ([2]; Treatment 2: 125 mg in ethanol, nasal delivery (FIG. 2, curve 210)): increases throughout the time period from 0 hours to 24 hours post administration
fold increase in the 25-Hydroxy-Vitamin D3 serum level [2, 8]: more than a three fold increases
percent increase in the 25-Hydroxy-Vitamin D3 serum level [2, 8]: ~200%
fold increase in the 25-Hydroxy-Vitamin D3 serum level [2, 9]: greater than 4.7 fold
percent increase in the 25-Hydroxy-Vitamin D3 serum level [2, 9]: ~375%
Average Serum Levels-25-Hydroxy-Vitamin D3 [2, 10]: 104 nmol/L
Multiple change from time 0 of serum 25-Hydroxy-Vitamin D3 [2, 10]: 1.2
Average Serum Levels-25-Hydroxy-Vitamin D3 [2, 11]: 156 nmol/L
Multiple change from time 0 of serum 25-Hydroxy-Vitamin D3 [2, 11]: 1.9
Average Serum Levels-25-Hydroxy-Vitamin D3 [2, 12]: 83 nmol/L
Multiple change from time 0 of serum 25-Hydroxy-Vitamin D3 [2, 12]: 0
course of serum level of 25-Hydroxy-Vitamin D3 ([2]; Treatment 3: 125 mg powder, nasal delivery (FIG. 2, curve 220)): increases throughout the time period from 0 hours to 24 hours post administration
Average Serum Levels-25-Hydroxy-Vitamin D3 [2, 13]: 95 nmol/L
Multiple change from time 0 of serum 25-Hydroxy-Vitamin D3 [2, 13]: 1.0
Average Serum Levels-25-Hydroxy-Vitamin D3 [2, 14]: 179 nmol/L
Multiple change from time 0 of serum 25-Hydroxy-Vitamin D3 [2, 14]: 1.9
Average Serum Levels-25-Hydroxy-Vitamin D3 [2, 15]: 94 nmol/L
Multiple change from time 0 of serum 25-Hydroxy-Vitamin D3 [2, 15]: 0
course of serum level of 25-Hydroxy-Vitamin D3 ([2]; Treatment 4: 125 mg in corn oil, nasal delivery (FIG. 2, curve 230)): increases throughout the time period from 6 hours to 24 hours post administration
Average Serum Levels-25-Hydroxy-Vitamin D3 [2, 16]: 81 nmol/L
Multiple change from time 0 of serum 25-Hydroxy-Vitamin D3 [2, 16]: 1.1
Average Serum Levels-25-Hydroxy-Vitamin D3 [2, 17]: 96 nmol/L
Multiple change from time 0 of serum 25-Hydroxy-Vitamin D3 [2, 17]: 1.3
Average Serum Levels-25-Hydroxy-Vitamin D3 [2, 18]: 74 nmol/L
Multiple change from time 0 of serum 25-Hydroxy-Vitamin D3 [2, 18]: 0
serum level change for each milligram administered ([3]; Buccal administration (Treatment 3, 120 mg in 1 ml ethanol)): about 0.63 nmol/L for each milligram administered
serum level change for each milligram administered ([3]; Nasal administration (Treatment 2, 120 mg in 1 ml ethanol)): about 0.57 nmol/L for each milligram administered
Average Serum Levels-25-Hydroxy-Vitamin D3 ([3]; Treatment 2: 120 mg 25-OH D3 in 1 ml ethanol, intranasal, 6 Hours): 191.67 nmol/L
Average Serum Levels-25-Hydroxy-Vitamin D3 ([3]; Treatment 2: 120 mg 25-OH D3 in 1 ml ethanol, intranasal, time 0): 122.33 nmol/L
effectiveness of buccal administration compared with nasal administration ([3]; Treatment 3, buccal, in ethanol, versus Treatment 2, nasal, 0 to 6 hours (FIG. 6, curves 610 and 620)): comparatively as effective as nasal administration
Average Serum Levels-25-Hydroxy-Vitamin D3 ([3]; Treatment 3: 120 mg 25-OH D3 in 1 ml ethanol, buccal, 6 Hours): 158.00 nmol/L
Average Serum Levels-25-Hydroxy-Vitamin D3 ([3]; Treatment 3: 120 mg 25-OH D3 in 1 ml ethanol, buccal, time 0): 82.00 nmol/L
course of serum level of 25-Hydroxy-Vitamin D3 ([4]; 0 to 6 hours (FIG. 1, curve portion 112)): increases from 0 hours to 6 hours post administration
course of serum level of 25-Hydroxy-Vitamin D3 ([4]; 6 to 24 hours (FIG. 1, curve portion 114)): decreases from 6 hours to 24 hours post administration
serum level of 25-Hydroxy-Vitamin D3 ([4]; 6 hours post administration): 2432 nanomoles per liter
serum level of 25-Hydroxy-Vitamin D3 ([4]; 24 hours post administration): 1011 nanomoles per liter
serum level of 25-Hydroxy-Vitamin D3 ([4]; just prior to infusion): 116 nanomoles per liter

— patent publication US20030225044A1, “Method to increase serum levels of vitamins in animals including humans” (priority 2002, published 2003)
